≈ marks a conversion by molar mass, not a printed value. Read-outs that look alike come from different tables or passages of the source.

Series [1] can be described thus: Solubility of the organic additives in water. To be noted: for solubility: water, 25 °C, thermodynamic from solid.
Description: For the determination of the solubility of the organic additives described herein, the GC-based method described above in connection with the solubilities of the monomers may be used. […] The method is basically measuring residual amount of CD in a saturated solution after drying.
The conditions of series [2]: cyclodextrins; values taken from Sabadini et al.; 25°C; cited from earlier work.

`CC(=O)OCC(COC(C)=O)OC(C)=O` [1,2,3-propanetriol triacetate] returned a solubility in series [1] of 72 mg/mL. Consider `OCCCCO` [1,4-butandiol], for which, in series [1] (additives other than cyclodextrins, 25°C), the Solubility in water result is listed as “miscible”. As for `CCCCCO` [1-pentanol], the solubility in series [1] was found to be 22.4 mg/mL (≈ 254 mM). In the case of `CCCCCCCO` [Heptanol], the solubility in series [1] worked out at 1.74 mg/mL (≈ 15 mM). Consider `OC[C@H]1O[C@@H]2O[C@H]3[C@H](O)[C@@H](O)[C@@H](O[C@H]4[C@H](O)[C@@H](O)[C@@H](O[C@H]5[C@H](O)[C@@H](O)[C@@H](O[C@H]6[C@H](O)[C@@H](O)[C@@H](O[C@H]7[C@H](O)[C@@H](O)[C@@H](O[C@H]1[C@H](O)[C@H]2O)O[C@@H]7CO)O[C@@H]6CO)O[C@@H]5CO)O[C@@H]4CO)O[C@@H]3CO` [α-cyclodextrin], for which, in series [2], the Solubility in water is 129.5 mg/mL (≈ 133 mM). On to `OC[C@H]1O[C@@H]2O[C@H]3[C@H](O)[C@@H](O)[C@@H](O[C@H]4[C@H](O)[C@@H](O)[C@@H](O[C@H]5[C@H](O)[C@@H](O)[C@@H](O[C@H]6[C@H](O)[C@@H](O)[C@@H](O[C@H]7[C@H](O)[C@@H](O)[C@@H](O[C@H]8[C@H](O)[C@@H](O)[C@@H](O[C@H]9[C@H](O)[C@@H](O)[C@@H](O[C@H]1[C@H](O)[C@H]2O)O[C@@H]9CO)O[C@@H]8CO)O[C@@H]7CO)O[C@@H]6CO)O[C@@H]5CO)O[C@@H]4CO)O[C@@H]3CO` [γ-cyclodextrin], for which, in series [2], the Solubility in water is 249.2 mg/mL (≈ 192 mM).

(Values after EP3133117A1, “WATER-BASED POLYMER SYSTEM FOR LABELING ADHESIVE APPLICATIONS” (Henkel AG & Co. KGaA, priority 2015, dated 2017).)
